According to US20210379063A1, “ORAL AMINODIHYDROPHTHALAZINEDIONE COMPOSITIONS AND THEIR USE IN THE TREATMENT OF NON-VIRAL HEPATITIS” (Immunopharma Plus D.O.O., priority 2018, published 2021):
Where two headings read alike, the source gives them in different places. Marks after values point to notes of the source that are not given here.

What was measured:
[1] = tested on: acute experimental hepatitis, tetrachloromethane (CCL4)
Procedure: Acute experimental hepatitis that develops with the introduction of tetrachloromethane (CCL4) is a classic model for studying the mechanisms of reparative regeneration of the liver after exposure to various chemical toxicants.
The experiments were carried out on male Wistar rats weighing 200-220 g, in accordance with the recommendations of the international ethics committees on the humane treatment of laboratory animals (EU Council Directive 86/609 EEC dated Nov. 24, 1986). Carbon tetrachloride (CCL4), was administered to the animals intraperitoneally once at a dose of 50 mg/kg of body weight. […] The animals were sacrificed on the 3rd, 7th day after the simulation of toxic hepatitis.

PHMG poisoning = assay: Acute hepatitis caused by alcohol substitute PHMG in rats
Procedure: The experiment was carried out on 25 male white outbred rats weighing 200-300 g, in accordance with the recommendations of the international ethics committees on the humane treatment of laboratory animals (EU Council Directive 86/609 EEC dated Nov. 24, 1986). To create an experimental model, an aqueous solution of PHMG was used, which was administered intraperitoneally at a dose of 50 mg/100 g.

[2] = tested on: liver after introduction of carrageenan; conditions: for ALT, units/l / AST, units/l: carrageenan + Tamerit
Procedure: The experiments were carried out on 25 male Wistar rats weighing 200-220 g, in accordance with the recommendations of the international ethics committees on the humane treatment of laboratory animals (EU Council Directive 86/609 EEC dated Nov. 24, 1986). […] Its mechanism of action is based on the inhibition of the process of phagocytosis and the activity of lysosomal hydrolases of mononuclear phagocytes. The drug was administered intragastrically through a probe in an aqueous solution at a dose of 10 mg/kg. The choice of time frame (4, 17 hours after surgery) corresponds to the phases of liver regeneration.

[3] = CCl4 3rd day + Tamerit 2 mg/kg intramuscularly
[4] = CCl4 7th day + Tamerit 2 mg/kg intramuscularly
[5] = PHMG 3 days + Tamerit intraperitoneally
[6] = PHMG 7 days + Tamerit intraperitoneally

## Nc1cccc2c(=O)[n-][nH]c(=O)c12.[Na+] [Tamerit, aminodihydrophthalazinedione sodium]
[1]; [3]
  ALT, U/L: 9.1 ± 1.6 U/L
  AST, U/L: 10.0 ± 2.0 U/L
  BCL, quant: 186.0 ± 7.0 quant
[1]; [4]
  ALT, U/L: 7.12 ± 0.20 U/L
  AST, U/L: 8.53 ± 0.13 U/L
  BCL, quant: 171 ± 18 quant
[1]; early stages of toxic hepatitis by tetrachloromethane
  effect on inflammatory reaction in toxic hepatitis: reduces the severity of the inflammatory reaction
PHMG poisoning; 7th day after PHMG
  degree of hepatocyte destruction: minimal
PHMG poisoning; PHMG 3rd day + Tamerit
  ALT, U/L: 5.7 ± 1.9 U/L
  AST, U/L: 11.3 ± 0.6 U/L
  GTP, U/L: 17.5 ± 2.0 U/L
PHMG poisoning; PHMG 7th day + Tamerit
  ALT, U/L: 8.1 ± 0.2 U/L
  AST, U/L: 12.1 ± 0.3 U/L
  GTP, U/L: 26.0 ± 3.4 U/L
PHMG poisoning; [5]
  Binuclear cells, %: 65.12 ± 0.14 %
  Mitotic index, %: 38.26 ± 0.18 %
PHMG poisoning; [6]
  Binuclear cells, %: 61.18 ± 0.24 %
  Mitotic index, %: 45.6 ± 0.14* ** %
[2]; Carrageenan 4 hours + Tamerit
  Mitotic index, %: 0.65 ± 0.25 %
  Nuclear cytoplasmic index: 0.36 ± 0.01
  Number of binuclear cells, %: 25.0 ± 3.58 %
[2]; Carrageenan 17 hours + Tamerit
  Mitotic index, %: 0.48 ± 0.12 %
  Nuclear cytoplasmic index: 0.35 ± 0.02
  Number of binuclear cells, %: 29.2 ± 4.18 %
[2]; after carrageenan
  activity of aminotransferases: completely restores the activity of aminotransferases to the parameters of healthy animals
[2]; 4 hours
  ALT, units/l: 40.2 ± 4.0 units/l
  AST, units/l: 85.4 ± 8.0 units/l
[2]; 17 hours
  ALT, units/l: 42.2 ± 3.5 units/l
  AST, units/l: 83.5 ± 4.5 units/l
